Experimental data reported in patent US12503438B2, “Compounds for the treatment of kinase-dependent disorders” (Exelixis, Inc., priority 2019, dated 2025).

Columns and labels:
KDR = KDR (Homo sapiens, UniProt P35968); experiment: KDR autophosphorylation ELISA in HUVEC cells; type: cell-based; set-up: endogenous in cells; host or cells: HUVEC (Lonza #C2519A); settings: cellular activity, VEGF165-stimulated, phospho-KDR ELISA
Procedure, shortened: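 HUVECs grown 24 h at 37 °C, then serum-starved 24 h, were preincubated 1 h with an 8-point compound series (0.3% DMSO) and stimulated with 100 ng/mL human VEGF165 for 5 min. Phospho-KDR in lysates was measured by sandwich ELISA against a phospho-KDR standard; IC50 from 4-parameter logistic fit.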

AXL = target: T1, AXL (Homo sapiens, UniProt P30530); experiment: AXL autophosphorylation ELISA in A-172 cells; type: cell-based; settings: cellular activity, Gas6-stimulated, phospho-AXL ELISA
T1 construct: endogenous in cells; host or cells: A-172 glioblastoma cells (ATCC #CRL-1620)
T1 sequence (P30530 26-894): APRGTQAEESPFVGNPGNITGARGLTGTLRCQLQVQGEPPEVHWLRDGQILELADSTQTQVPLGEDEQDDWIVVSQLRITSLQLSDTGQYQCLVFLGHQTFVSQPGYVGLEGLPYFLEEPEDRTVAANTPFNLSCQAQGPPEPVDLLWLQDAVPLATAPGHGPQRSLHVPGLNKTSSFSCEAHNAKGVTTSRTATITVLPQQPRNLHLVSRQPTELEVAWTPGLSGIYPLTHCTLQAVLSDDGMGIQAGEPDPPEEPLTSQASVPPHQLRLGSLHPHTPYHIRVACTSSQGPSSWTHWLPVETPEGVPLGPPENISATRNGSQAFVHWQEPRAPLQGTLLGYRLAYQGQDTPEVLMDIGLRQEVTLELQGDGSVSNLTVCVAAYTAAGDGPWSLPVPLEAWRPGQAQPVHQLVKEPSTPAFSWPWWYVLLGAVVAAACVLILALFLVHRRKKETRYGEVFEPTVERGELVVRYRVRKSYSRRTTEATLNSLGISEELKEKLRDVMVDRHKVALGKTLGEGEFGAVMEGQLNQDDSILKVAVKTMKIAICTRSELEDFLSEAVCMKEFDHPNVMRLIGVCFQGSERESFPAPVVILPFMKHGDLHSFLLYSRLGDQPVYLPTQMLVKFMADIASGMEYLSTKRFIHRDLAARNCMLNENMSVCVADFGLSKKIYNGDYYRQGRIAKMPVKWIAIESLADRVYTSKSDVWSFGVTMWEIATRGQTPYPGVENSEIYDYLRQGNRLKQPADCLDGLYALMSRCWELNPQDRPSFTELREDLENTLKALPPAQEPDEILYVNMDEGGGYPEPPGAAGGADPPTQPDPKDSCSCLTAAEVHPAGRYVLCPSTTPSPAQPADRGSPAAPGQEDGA
Procedure, shortened: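 Serum-starved (24 h) A-172 glioblastoma cells got an 8-point compound series (0.3% DMSO) for 1 h, then 1 μg/mL human Gas6 for 15 min. Lysate phospho-AXL quantified by ELISA against phospho-AXL standard, normalized to DMSO and reference-inhibitor controls; IC50 by 4-parameter logistic fit.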

Chain of KDR (P35968 20-1356): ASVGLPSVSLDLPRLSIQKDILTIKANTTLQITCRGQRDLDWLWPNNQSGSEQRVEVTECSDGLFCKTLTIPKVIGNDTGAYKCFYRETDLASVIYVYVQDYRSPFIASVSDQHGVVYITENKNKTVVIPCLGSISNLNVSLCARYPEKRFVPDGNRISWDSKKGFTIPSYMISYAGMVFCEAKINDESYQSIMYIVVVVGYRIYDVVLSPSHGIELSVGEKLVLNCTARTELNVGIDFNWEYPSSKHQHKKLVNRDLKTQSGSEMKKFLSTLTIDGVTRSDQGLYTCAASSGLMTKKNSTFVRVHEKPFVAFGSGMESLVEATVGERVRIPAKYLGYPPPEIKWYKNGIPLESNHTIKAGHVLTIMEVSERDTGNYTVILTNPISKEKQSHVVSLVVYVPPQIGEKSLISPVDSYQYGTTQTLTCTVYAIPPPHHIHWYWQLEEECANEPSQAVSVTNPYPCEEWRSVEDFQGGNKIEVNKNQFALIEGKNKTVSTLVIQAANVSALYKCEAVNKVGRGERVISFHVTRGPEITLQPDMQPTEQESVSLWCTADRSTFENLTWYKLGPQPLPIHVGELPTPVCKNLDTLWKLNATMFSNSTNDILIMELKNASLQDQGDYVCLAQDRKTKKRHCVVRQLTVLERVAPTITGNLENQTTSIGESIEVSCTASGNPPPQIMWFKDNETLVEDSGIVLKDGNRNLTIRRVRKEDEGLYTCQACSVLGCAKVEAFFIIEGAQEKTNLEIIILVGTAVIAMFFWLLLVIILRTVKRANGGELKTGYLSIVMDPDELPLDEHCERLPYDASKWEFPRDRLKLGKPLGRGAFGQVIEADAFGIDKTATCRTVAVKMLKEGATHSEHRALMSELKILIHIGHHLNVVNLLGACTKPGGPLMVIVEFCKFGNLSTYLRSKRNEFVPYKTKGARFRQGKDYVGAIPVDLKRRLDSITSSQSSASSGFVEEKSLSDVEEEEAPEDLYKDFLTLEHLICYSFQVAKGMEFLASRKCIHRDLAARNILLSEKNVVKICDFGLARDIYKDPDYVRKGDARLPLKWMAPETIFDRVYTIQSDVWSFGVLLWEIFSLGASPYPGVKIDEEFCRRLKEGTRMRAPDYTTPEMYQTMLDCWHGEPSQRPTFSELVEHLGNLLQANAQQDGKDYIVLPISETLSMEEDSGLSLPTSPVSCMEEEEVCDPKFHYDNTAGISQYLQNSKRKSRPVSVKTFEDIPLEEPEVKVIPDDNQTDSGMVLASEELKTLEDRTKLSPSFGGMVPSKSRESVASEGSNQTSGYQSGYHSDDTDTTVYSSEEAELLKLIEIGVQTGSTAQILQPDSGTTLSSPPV

Row | SMILES | IC50 (KDR) [nM] | IC50 (AXL) [nM]
1 | Cn1cc(-c2ccc3c(Oc4ccc(NC(=O)C5(C(=O)N6CCc7cc(F)ccc76)CC5)cc4)ccnc3c2)cn1 [Compound 81, 1-(5-Fluoro-2,3-dihydroindole-1-carbonyl)-N-[4-[7-(1-methylpyrazol-4-yl)quinolin-4-yl]oxyphenyl]cyclopropane-1-carboxamide] | > 300 | 10 to 100
2 | Cc1cc(F)cc(C)c1NC(=O)C1(C(=O)Nc2ccc(Oc3ccnc4cc(-c5cnn(C)c5)ccc34)cc2)CC1 [Compound 82, 1-N′-(4-Fluoro-2,6-dimethylphenyl)-1-N-[4-[7-(1-methylpyrazol-4-yl)quinolin-4-yl]oxyphenyl]cyclopropane-1,1-dicarboxamide] | > 300 | 10 to 100
3 | CN(C(=O)C1(C(=O)Nc2ccc(Oc3ccnc4cc(-c5cnn(C)c5)ccc34)cc2)CC1)c1ccc(F)cc1 [Compound 82A, 1-N′-(4-Fluorophenyl)-1-N′-methyl-1-N-[4-[7-(1-methylpyrazol-4-yl)quinolin-4-yl]oxyphenyl]cyclopropane-1,1-dicarboxamide] | > 300 | > 300
4 | O=C(Nc1ccc(F)cc1)C1(C(=O)Nc2ccc(Oc3ccnc4cc(C5CCNC5)ccc34)cc2)CC1 (centres unmarked) [Compound 83, 1-N′-(4-Fluorophenyl)-1-N-[4-(7-pyrrolidin-3-ylquinolin-4-yl)oxyphenyl]cyclopropane-1,1-dicarboxamide] | 100 to 300 | 100 to 300
5 | O=C(Nc1ccc(F)cc1)C1(C(=O)Nc2ccc(Oc3ccnc4cc(-c5ccn(C(F)F)n5)ccc34)cc2)CC1 [Compound 84, 1-N-[4-[7-[1-(Difluoromethyl)pyrazol-3-yl]quinolin-4-yl]oxyphenyl]-1-N′-(4-fluorophenyl)cyclopropane-1,1-dicarboxamide] | 10 to 100 | 10 to 100
6 | O=C(Nc1ccc(F)cc1)C1(C(=O)Nc2ccc(Oc3ccnc4cc(-c5ccccn5)ccc34)cc2)CC1 [Compound 85, 1-N′-(4-Fluorophenyl)-1-N-[4-(7-pyridin-2-ylquinolin-4-yl)oxyphenyl]cyclopropane-1,1-dicarboxamide] | 10 to 100 | 10 to 100
7 | Cn1ncc(-c2ccc3c(Oc4ccc(NC(=O)C5(C(=O)Nc6ccc(F)cc6)CC5)cc4)ccnc3c2)n1 [Compound 86, 1-N′-(4-Fluorophenyl)-1-N-[4-[7-(2-methyltriazol-4-yl)quinolin-4-yl]oxyphenyl]cyclopropane-1,1-dicarboxamide] | ≤ 10 | 10 to 100
8 | O=C(Nc1ccc(F)cc1)C1(C(=O)Nc2ccc(Oc3ccnc4cc(-c5ccc[n+]([O-])c5)ccc34)cc2)CC1 [Compound 109, 1-N′-(4-Fluorophenyl)-1-N-[4-[7-(1-oxidopyridin-1-ium-3-yl)quinolin-4-yl]oxyphenyl]cyclopropane-1,1-dicarboxamide] | ≤ 10 | ≤ 10
9 | Cc1cc2c(Oc3c(F)cc(NC(=O)C4(C(=O)Nc5ccc(F)cc5)CC4)c(F)c3F)ccnc2cc1-c1cnn(C)c1 [Compound 110, 1-N-(4-Fluorophenyl)-1-N′-[2,3,5-trifluoro-4-[6-methyl-7-(1-methylpyrazol-4-yl)quinolin-4-yl]oxyphenyl]cyclopropane-1,1-dicarboxamide] | 100 to 300 | 10 to 100
10 | CN1CCN(c2cc(-c3ccc4c(Oc5ccc(NC(=O)C6(C(=O)Nc7ccc(F)cc7)CC6)cc5)ccnc4c3)ccn2)CC1 [Compound 111, 1-N′-(4-Fluorophenyl)-1-N-[4-[7-[2-(4-methylpiperazin-1-yl)pyridin-4-yl]quinolin-4-yl]oxyphenyl]cyclopropane-1,1-dicarboxamide] | 10 to 100 | 10 to 100
11 | Cc1cc2c(Oc3cc(Cl)c(NC(=O)C4(C(=O)Nc5ccc(F)cc5)CC4)cc3F)ccnc2cc1-c1cnn(C)c1 [Compound 112, 1-N′-[2-Chloro-5-fluoro-4-[6-methyl-7-(1-methylpyrazol-4-yl)quinolin-4-yl]oxyphenyl]-1-N-(4-fluorophenyl)cyclopropane-1,1-dicarboxamide] | > 300 | 10 to 100
12 | O=C(Nc1ccc(F)cc1)C1(C(=O)Nc2ccc(Oc3ccnc4cc(-c5cccnc5)ccc34)c(F)c2)CC1 [Compound 113, 1-N-(4-Fluorophenyl)-1-N′-[3-fluoro-4-(7-pyridin-3-ylquinolin-4-yl)oxyphenyl]cyclopropane-1,1-dicarboxamide] | ≤ 10 | 10 to 100
13 | O=C(Nc1ccc(F)cc1)C1(C(=O)Nc2ccc(Oc3ccnc4cc(-c5ccncn5)ccc34)cc2)CC1 [Compound 114, 1-N′-(4-Fluorophenyl)-1-N-[4-(7-pyrimidin-4-ylquinolin-4-yl)oxyphenyl]cyclopropane-1,1-dicarboxamide] | ≤ 10 | 10 to 100
14 | O=C(Nc1ccc(F)cc1)C1(C(=O)Nc2cc(F)c(Oc3ccnc4cc(-c5cccnc5)ccc34)cc2F)CC1 [Compound 115, 1-N′-[2,5-Difluoro-4-(7-pyridin-3-ylquinolin-4-yl)oxyphenyl]-1-N-(4-fluorophenyl)cyclopropane-1,1-dicarboxamide] | ≤ 10 | ≤ 10
15 | O=C(Nc1ccc(F)cc1)C1(C(=O)Nc2ccc(Oc3ccnc4cc(-c5cncs5)ccc34)cc2)CC1 [Compound 116, 1-N′-(4-Fluorophenyl)-1-N-[4-[7-(1,3-thiazol-5-yl)quinolin-4-yl]oxyphenyl]cyclopropane-1,1-dicarboxamide] | ≤ 10 | 10 to 100
16 | Cn1ccc(-c2ccc3c(Oc4ccc(NC(=O)C5(C(=O)Nc6ccc(F)cc6)CC5)cc4)ccnc3c2)cc1=O [Compound 117, 1-N′-(4-Fluorophenyl)-1-N-[4-[7-(1-methyl-2-oxopyridin-4-yl)quinolin-4-yl]oxyphenyl]cyclopropane-1,1-dicarboxamide] | ≤ 10 | ≤ 10
17 | O=C(Nc1ccc(F)cc1)C1(C(=O)Nc2cc(F)c(Oc3ccnc4cc(-c5cnn(C(F)F)c5)ccc34)cc2F)CC1 [Compound 118, 1-N′-[4-[7-[1-(Difluoromethyl)pyrazol-4-yl]quinolin-4-yl]oxy-2,5-difluorophenyl]-1-N-(4-fluorophenyl)cyclopropane-1,1-dicarboxamide] | 10 to 100 | ≤ 10
18 | Cn1cc(-c2ccc3c(Oc4ccc(NC(=O)C5(C(=O)Nc6ccc(F)cc6)CC5)cc4)ccnc3c2)ccc1=O [Compound 119, 1-N′-(4-Fluorophenyl)-1-N-[4-[7-(1-methyl-6-oxopyridin-3-yl)quinolin-4-yl]oxyphenyl]cyclopropane-1,1-dicarboxamide] | ≤ 10 | ≤ 10
19 | Cc1cc2c(Oc3cc(F)c(NC(=O)C4(C(=O)Nc5ccc(F)cc5)CC4)cc3F)ccnc2cc1-c1ncc[nH]1 [Compound 121, 1-N′-[2,5-Difluoro-4-[7-(1H-imidazol-2-yl)-6-methylquinolin-4-yl]oxyphenyl]-1-N-(4-fluorophenyl)cyclopropane-1,1-dicarboxamide] | 10 to 100 | ≤ 10
20 | Cc1cc2c(Oc3ccc(NC(=O)C4(C(=O)Nc5ccc(F)cc5)CC4)cc3F)ccnc2cc1-c1ncc[nH]1 [Compound 122, 1-N′-[3-Fluoro-4-[7-(1H-imidazol-2-yl)-6-methylquinolin-4-yl]oxyphenyl]-1-N-(4-fluorophenyl)cyclopropane-1,1-dicarboxamide] | 10 to 100 | 10 to 100
21 | O=C(Nc1ccc(F)cc1)C1(C(=O)Nc2ccc(Oc3ccnc4cc(-c5cnn(C(F)F)c5)ccc34)c(F)c2)CC1 [Compound 123, 1-N′-[4-[7-[1-(Difluoromethyl)pyrazol-4-yl]quinolin-4-yl]oxy-3-fluorophenyl]-1-N-(4-fluorophenyl)cyclopropane-1,1-dicarboxamide] | ≤ 10 | ≤ 10
22 | O=C(Nc1ccc(F)cc1)C1(C(=O)Nc2ccc(Oc3ccnc4cc(-c5cc6n(n5)CCC6)ccc34)cc2)CC1 [Compound 124, 1-N-[4-[7-(5,6-Dihydro-4H-pyrrolo[1,2-b]pyrazol-2-yl)quinolin-4-yl]oxyphenyl]-1-N′-(4-fluorophenyl)cyclopropane-1,1-dicarboxamide] | 10 to 100 | 10 to 100
